Earlier results in patent US20090117146A1 (priority 2005, published 2009).

Tested on: adenyl cyclase
Settings: follicles of scalp hair

Row | Structure (SMILES) | effect on adenyl cyclase activity
1 | C[C@]12CCC(=O)C[C@@H]1CC[C@@H]1[C@@H]2CC[C@]2(C)[C@@H](O)CC[C@@H]12 [dihydrotestosterone] | inhibits adenyl cyclase activity
2 | C[C@]12CC[C@H]3[C@@H](CCC4=CC(=O)CC[C@@]43C)[C@@H]1CC[C@@H]2O [testosterone] | does not
